# Laboratory results reported in ChEMBL document CHEMBL4342422, “Synthetic strategy and SAR studies of C-glucoside heteroaryls as SGLT2 inhibitor: A review” (Eur J Med Chem, 2019).
# Tests used:
# Homo sapiens [1] = assay: Antidiabetic activity in human T2DM patients assessed as reduction in HbA1c level at 10 mg, po relative to control; assay type: functional; parameters: scale not given: the % may be the effect or the level left
# Homo sapiens [2] = assay: Antidiabetic activity in human T2DM patients assessed as reduction in HbA1c level at 25 mg, po relative to control; assay type: functional; parameters: scale not given: the % may be the effect or the level left
# Homo sapiens [3] = assay: Antidiabetic activity in human T2DM patients assessed as reduction in body weight at 10 to 25 mg, po; assay type: functional
# [4] = Toxicity in human T2DM patients assessed as reduction in systolic blood pressure at 25 mg, po; details: in vivo
# [5] = Toxicity in human T2DM patients assessed as reduction in diastolic blood pressure at 25 mg, po; details: in vivo
# [6] = Half life in human; assay type: ADME
# [7] = Elimination half life in human at 1 to 25 mg, po; assay type: ADME; details: in vivo, read-out: LambdaZ
# [8] = Tmax in human at 5 mg, po; assay type: ADME; details: in vivo
# Homo sapiens [9] = assay: Antidiabetic activity in human T2DM patients assessed as reduction in HbA1c level at 25 mg, po for 12 weeks relative to control; assay type: functional; parameters: scale not given: the % may be the effect or the level left
# [10] = Toxicity in human T2DM patients assessed as reduction in systolic blood pressure at 5 mg, po for 4 weeks; assay type: organism-based; details: in vivo, 672 h
# [11] = Toxicity in human T2DM patients assessed as reduction in systolic blood pressure at 10 mg, po for 4 weeks; assay type: organism-based; details: in vivo, 672 h
# [12] = Toxicity in human assessed as urinary tract infection at 200 to 400 mg, po for 52 weeks; assay type: organism-based; details: in vivo, 8736 h
# Homo sapiens [13] = assay: Antidiabetic activity in human T2DM patients assessed as reduction in HbA1c level at 50 mg, po for 24 weeks relative to control; assay type: functional; parameters: scale not given: the % may be the effect or the level left
# Homo sapiens [14] = assay: Antidiabetic activity in human T2DM patients assessed as fasting blood glucose level at 50 mg, po for 24 weeks; assay type: functional
# Homo sapiens [15] = assay: Antidiabetic activity in human T2DM patients assessed as reduction in body weight at 50 mg, po for 24 weeks; assay type: functional
# Homo sapiens [16] = assay: Antidiabetic activity in human T2DM patients assessed as reduction in HbA1c level at 20 mg, po for 24 weeks relative to control; assay type: functional; parameters: scale not given: the % may be the effect or the level left
# Homo sapiens [17] = assay: Antidiabetic activity in human T2DM patients assessed as reduction in body weight at 20 mg, po for 24 weeks; assay type: functional
# [18] = Toxicity in human T2DM patients assessed as reduction in blood pressure at 20 mg, po for 24 weeks; assay type: organism-based; details: in vivo, 4032 h
structure (smiles),measurement,setting,value
OC[C@H]1O[C@@H](c2ccc(Cl)c(Cc3ccc(O[C@@H]4CCOC4)cc3)c2)[C@H](O)[C@@H](O)[C@@H]1O,Activity,Homo sapiens [1],0.929%
same,Activity,Homo sapiens [2],1.064%
same,Activity,Homo sapiens [3],1.85 kg
same,Activity,[4],4.19 mmHg
same,Activity,[5],-1.04 mmHg
same,half-life,[6],1 h
CCOc1ccc(Cc2cc([C@@H]3S[C@H](CO)[C@@H](O)[C@H](O)[C@H]3O)c(OC)cc2C)cc1 [LUSEOGLIFLOZIN],half-life,[7],9.2 to 13.8 h
CCOc1ccc(Cc2cc([C@]34OC[C@](CO)(O3)[C@@H](O)[C@H](O)[C@H]4O)ccc2Cl)cc1 [ERTUGLIFLOZIN],Tmax,[8],1 h
same,Activity,Homo sapiens [9],-0.72%
same,Activity,[10],2.59 to 2.86 mmHg
same,Activity,[11],2.59 to 2.86 mmHg
CCOc1ccc(Cc2cc([C@@H]3O[C@H](SC)[C@@H](O)[C@H](O)[C@H]3O)ccc2Cl)cc1 [SOTAGLIFLOZIN],Activity,[12],4.2 to 6.9%
OC[C@H]1O[C@@H](c2ccc(F)c(Cc3cc4ccccc4s3)c2)[C@H](O)[C@@H](O)[C@@H]1O [IPRAGLIFLOZIN],Activity,Homo sapiens [13],0.79%
same,Activity,Homo sapiens [14],32.89 mg/dL
same,Activity,Homo sapiens [15],1.1 kg
CCc1ccc(Cc2ccc3c(c2)[C@]2(OC3)O[C@H](CO)[C@@H](O)[C@H](O)[C@H]2O)cc1 [TOFOGLIFLOZIN ANHYDROUS],Activity,Homo sapiens [16],1.017%
same,Activity,Homo sapiens [17],2.9 kg
same,Activity,[18],2.1 mmHg
